Measurements: the supplement of paper PMC11061612

Columns and labels:
Assay in all cases: Bliss excess, mean over the matrix (fraction); higher = more synergy
[1] = test system: CAL-78 (Chondrosarcoma)
Summary of the method: (§1)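 Bliss excess equals the observed combination effect minus the expected value EA + EB − EA·EB, where EA and EB are the effects of each agent alone. Combination Emax is the second-highest inhibition within the matrix. Inhibition was scaled from CellTiter-Glo 2.0 luminescence, with 0 set by vehicle wells and 1 by blank wells, after 72 hours of two-drug dosing of cells plated in 1536-well plates.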

[2] = test system: U-266 (Plasma Cell Myeloma)
Summary of the method: as §1

[3] = test system: SW1990 (Pancreatic Carcinoma)
Summary of the method: as §1

[4] = test system: HT-29 (Colorectal Carcinoma)
Summary of the method: as §1

[5] = test system: KARPAS-620 (Plasma Cell Myeloma)
Summary of the method: as §1

[6] = test system: LU-99A (Non-Small Cell Lung Carcinoma)
Summary of the method: as §1

[7] = test system: COR-L23 (Non-Small Cell Lung Carcinoma)
Summary of the method: as §1

[8] = test system: CTV-1 (T-Lymphoblastic Leukemia)
Summary of the method: as §1

[9] = test system: IGR-1 (Melanoma)
Summary of the method: as §1

[10] = test system: COR-L95 (Small Cell Lung Carcinoma)
Summary of the method: as §1

[11] = test system: SNU-C5 (Colorectal Carcinoma)
Summary of the method: as §1

[12] = test system: MDA-MB-231 (Breast Carcinoma)
Summary of the method: as §1

[13] = test system: KATOIII (Gastric Carcinoma)
Summary of the method: as §1

[14] = test system: TGBC24TKB (Biliary Tract Carcinoma)
Summary of the method: as §1

[15] = test system: SW756 (Cervical Carcinoma)
Summary of the method: as §1

[16] = test system: CFPAC-1 (Pancreatic Carcinoma)
Summary of the method: as §1

[17] = test system: J82 (Bladder Carcinoma)
Summary of the method: as §1

[18] = test system: HCC2157 (Breast Carcinoma)
Summary of the method: as §1

[19] = test system: SW1088 (Low Grade Glioma)
Summary of the method: as §1

[20] = test system: NCI-H1793 (Lung Adenocarcinoma)
Summary of the method: as §1

Row | SMILES | Bliss excess [1] | Bliss excess [2] | Bliss excess [3] | Bliss excess [4] | Bliss excess [5] | Bliss excess [6] | Bliss excess [7] | Bliss excess [8] | Bliss excess [9] | Bliss excess [10] | Bliss excess [11] | Bliss excess [12] | Bliss excess [13] | Bliss excess [14] | Bliss excess [15] | Bliss excess [16] | Bliss excess [17] | Bliss excess [18] | Bliss excess [19] | Bliss excess [20]
1 | NC1(C(=O)N[C@@H](CCO)c2ccc(Cl)cc2)CCN(c2ncnc3[nH]ccc23)CC1 [Capivasertib] + COc1nnc2ccc(N3CCC(c4ccc(OCCN5CCN(C)C(=O)[C@H]5C)cc4)CC3)nn12 [AZD5153] (first compound max 10 µM, 7x7, partner max 1 µM) | 0.0536 | 0.0076 | -0.0086 | -0.0029 | -0.0154 | 0 | 0.0335 | 0.0097 | -0.0325 | -0.0272 | 0.0669 | -0.009 | -0.0386 | 0.0597 | 0.0197 | 0.0332 | 0.0421 | -0.008 | 0.0253 | 0.0278
2 | NC1(C(=O)N[C@@H](CCO)c2ccc(Cl)cc2)CCN(c2ncnc3[nH]ccc23)CC1 [Capivasertib] + C[C@@H]1COCCN1C2=NC(=NC(=C2)C3(CC3)[S@](=N)(=O)C)C4=C5C=CNC5=NC=C4 [AZD6738] (first compound max 10 µM, 7x7, partner max 10 µM) | -0.0695 | -0.0793 | -0.0259 | -0.0396 | -0.0384 | -0.0059 | -0.0358 | 0.0489 | -0.0227 | -0.0644 | -0.0645 | -0.0598 | -0.0941 | -0.0104 | 0.0407 | -0.0224 | -0.065 | -0.0175 | -0.0619 | 0.0097
3 | NC1(C(=O)N[C@@H](CCO)c2ccc(Cl)cc2)CCN(c2ncnc3[nH]ccc23)CC1 [Capivasertib] + Cn1cnc2c(F)c(Nc3ccc(Br)cc3Cl)c(C(=O)NOCCO)cc21 [Selumetinib] (first compound max 10 µM, 7x7, partner max 10 µM) | -0.0369 | 0.0745 | 0.0535 | -0.0119 | 0.114 | -0.0222 | 0.0071 | 0.106 | 0.103 | -0.0359 | 0.0154 | -0.007 | 0.0291 | 0.132 | -0.0177 | 0.0351 | -0.021 | 0.017 | 0.0342 | -0.0292
4 | Cc1nc(Nc2ncc(C(=O)Nc3c(C)cccc3Cl)s2)cc(N2CCN(CCO)CC2)n1 [Dasatinib] + CC(=O)Nc1cccc(-n2c(=O)n(C3CC3)c(=O)c3c(Nc4ccc(I)cc4F)n(C)c(=O)c(C)c32)c1 [Trametinib] (first compound max 2 µM, 7x7, partner max 1 µM) | -0.108 | 0.0609 | 0.0235 | 0.0984 | 0.0632 | -0.0137 | 0.0284 | 0.0181 | -0.0448 | -0.0318 | -0.013 | -0.0145 | -0.0164 | 0.106 | -0.0659 | 0.106 | -0.0068 | -0.0199 | -0.0087 | -0.0406
5 | COc1cccc2c1C(=O)c1c(O)c3c(c(O)c1C2=O)C[C@@](O)(C(=O)CO)C[C@@H]3O[C@H]1C[C@H](N)[C@H](O)[C@H](C)O1 [Doxorubicin] + Cc1cc2ncnn2cc1Nc1ncc2c(n1)n(C1CCOCC1)c(=O)n2C [AZD7648] (first compound max 1 µM, 7x7, partner max 10 µM) | 0.0132 | 0.115 | -0.0224 | 0.0099 | -0.0381 | 0.0269 | 0.0351 | 0.119 | 0.0132 | 0.0084 | 0.0378 | -0.0124 | -0.0354 | -0.002 | 0.0541 | 0.0253 | 0.0106 | 0.112 | 0.0309 | 0.0117
6 | CS(=O)(=O)CCNCc1ccc(-c2ccc3ncnc(Nc4ccc(OCc5cccc(F)c5)c(Cl)c4)c3c2)o1 [Lapatinib] + C[C@@H](Oc1cc(-c2cnn(C3CCNCC3)c2)cnc1N)c1c(Cl)ccc(F)c1Cl [Crizotinib] (first compound max 10 µM, 7x7, partner max 10 µM) | -0.072 | -0.0574 | -0.0042 | -0.0475 | -0.0459 | -0.0205 | -0.0296 | 0.036 | -0.0282 | -0.0529 | -0.0301 | -0.042 | 0.0169 | -0.0058 | -0.0138 | -0.077 | -0.0317 | -0.0482 | -0.0612 | -0.0351
7 | CC(=O)c1c(C)c2cnc(Nc3ccc(N4CCNCC4)cn3)nc2n(C2CCCC2)c1=O [Palbociclib] + CC1(C)CCC(CN2CCN(c3ccc(C(=O)NS(=O)(=O)c4ccc(NCC5CCOCC5)c([N+](=O)[O-])c4)c(Oc4cnc5[nH]ccc5c4)c3)CC2)=C(c2ccc(Cl)cc2)C1 [Venetoclax] (first compound max 10 µM, 7x7, partner max 1 µM) | -0.0333 | -0.116 | -0.0239 | -0.0139 | 0.0056 | 0.048 | -0.0429 | 0.0415 | -0.0267 | -0.0581 | -0.017 | -0.0242 | -0.0606 | -0.0121 | -0.062 | 0.015 | -0.0388 | 0.0389 | -0.018 | -0.0136
8 | CC(=O)c1c(C)c2cnc(Nc3ccc(N4CCNCC4)cn3)nc2n(C2CCCC2)c1=O [Palbociclib] + Cc1c2c(nn1C)CSCc1cc(n(C)n1)CSc1cc(c3ccccc3c1)OCCCc1c(C(=O)O)n(C)c3c-2c(Cl)ccc13 [AZD5991] (first compound max 10 µM, 7x7, partner max 1 µM) | -0.0395 | -0.019 | -0.0427 | 0.0058 | 0.0443 | -0.046 | -0.0472 | -0.0096 | 0.0047 | -0.0112 | -0.0377 | -0.0424 | 0.0505 | 0.0597 | -0.0749 | -0.0063 | -0.0174 | -0.0106 | 0.0212 | -0.0299
9 | CC(=O)c1c(C)c2cnc(Nc3ccc(N4CCNCC4)cn3)nc2n(C2CCCC2)c1=O [Palbociclib] + Cn1cnc2c(F)c(Nc3ccc(Br)cc3Cl)c(C(=O)NOCCO)cc21 [Selumetinib] (first compound max 10 µM, 7x7, partner max 10 µM) | -0.0463 | 0.0393 | -0.0228 | 0.0336 | 0.166 | -0.0398 | 0.0224 | 0.0496 | 0.0661 | -0.0843 | -0.0615 | 0.0613 | 0.0393 | 0.0495 | -0.0736 | -0.0354 | -0.0538 | -0.036 | -0.0327 | -0.012
10 | COc1cccc(OCCCN)c1-c1cc(Nc2cnc(C#N)cn2)n[nH]1 [Prexasertib] + C=CCn1c(=O)c2cnc(Nc3ccc(N4CCN(C)CC4)cc3)nc2n1-c1cccc(C(C)(C)O)n1 [AZD1775] (first compound max 1 µM, partner max 1 µM) | -0.0422 | -0.0454 | -0.0061 | -0.0247 | 0.0927 | 0.0196 | 0.047 | 0.0364 | 0.0284 | -0.0187 | 0.0153 | 0.124 | -0.0076 | 0.0429 | 0.0163 | -0.0145 | 0.096 | 0.0668 | -0.0156 | -0.0045
11 | COc1cccc(OCCCN)c1-c1cc(Nc2cnc(C#N)cn2)n[nH]1 [Prexasertib] + CCc1c2c(nc3ccc(O)cc13)-c1cc3c(c(=O)n1C2)COC(=O)[C@]3(O)CC [SN-38] (first compound max 1 µM, 7x7, partner max 0.3 µM) | -0.0348 | -0.0412 | -0.0551 | -0.0022 | 0.0396 | -0.0593 | 0.0388 | -0.0461 | 0.0316 | -0.121 | -0.0375 | 0.0723 | -0.0168 | 0.0191 | -0.0542 | -0.107 | -0.0177 | 0.0649 | 0.0128 | -0.0209
12 | COc1cccc(OCCCN)c1-c1cc(Nc2cnc(C#N)cn2)n[nH]1 [Prexasertib] + CN(C)CCCOc1ccc(-c2ccc3ncc4c(c3c2)n(C2CCOCC2)c(=O)n4C)cn1 [AZD0156] (first compound max 1 µM, 7x7, partner max 1 µM) | -0.0165 | -0.032 | -0.0247 | -0.0343 | 0.0277 | 0.0172 | 0.0229 | -0.0108 | 0.0399 | -0.0723 | -0.0292 | -0.0306 | -0.0053 | -0.0414 | -0.0179 | 0.0232 | 0.0036 | -0.0366 | -0.0241 | -0.0227
13 | COc1cccc(OCCCN)c1-c1cc(Nc2cnc(C#N)cn2)n[nH]1 [Prexasertib] + C[C@@H]1COCCN1C2=NC(=NC(=C2)C3(CC3)[S@](=N)(=O)C)C4=C5C=CNC5=NC=C4 [AZD6738] (first compound max 1 µM, 7x7, partner max 10 µM) | -0.0331 | -0.0859 | -0.0446 | -0.0361 | -0.0375 | -0.0398 | -0.0311 | -0.0725 | -0.0091 | 0.0074 | -0.0143 | 0.0988 | 0.0124 | -0.0038 | -0.0307 | -0.0284 | -0.0198 | -0.0145 | -0.0192 | -0.0106
14 | COc1cccc(OCCCN)c1-c1cc(Nc2cnc(C#N)cn2)n[nH]1 [Prexasertib] + Cc1cc2ncnn2cc1Nc1ncc2c(n1)n(C1CCOCC1)c(=O)n2C [AZD7648] (first compound max 1 µM, 7x7, partner max 10 µM) | -0.0473 | -0.0518 | -0.0317 | -0.0377 | 0.0083 | -0.0343 | 0.0184 | -0.0495 | 0.0116 | -0.102 | -0.0495 | 0.0128 | 0.0048 | -0.0412 | 0.0098 | -0.0398 | 0.0089 | -0.0315 | -0.0975 | 0.0257
15 | COc1cccc(OCCCN)c1-c1cc(Nc2cnc(C#N)cn2)n[nH]1 [Prexasertib] + O=C(c1cc(Cc2n[nH]c(=O)c3ccccc23)ccc1F)N1CCN(C(=O)C2CC2)CC1 [Olaparib] (first compound max 1 µM, 7x7, partner max 10 µM) | -0.0535 | -0.0895 | -0.0617 | -0.0732 | -0.046 | -0.0849 | 0.0116 | -0.122 | 0.0102 | -0.121 | -0.109 | -0.127 | -0.149 | -0.0191 | 0.0038 | -0.0834 | 0.033 | -0.0113 | -0.0707 | -0.0106
